Data from PubChem BioAssay (NCI).
“And” between values parts separate entries of the source, which are not always exact repeats. Equal entries are not always repeated.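 Following 48 hours of exposure in 96-well plates, responses at five concentrations were used to interpolate endpoints linearly. Abbreviation: GI50, concentration required for 50% inhibition of growth. Definition used: TGI = concentration required for complete inhibition of growth.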

Assays:
Assay in all cases: growth of human tumour cells (NCI), 48 h
CCRF-CEM leukemia = tested on: CCRF-CEM leukemia
BT-549 breast = tested on: BT-549 breast
EKVX NSCLC = tested on: EKVX NSCLC
HOP-62 NSCLC = tested on: HOP-62 NSCLC
SK-MEL-5 melanoma = tested on: SK-MEL-5 melanoma
UACC-62 melanoma = tested on: UACC-62 melanoma
MDA-MB-231 breast = tested on: MDA-MB-231 breast
SF-295 CNS = tested on: SF-295 CNS
IGROV1 ovarian = tested on: IGROV1 ovarian
COLO 205 colon = tested on: COLO 205 colon
A549 NSCLC = tested on: A549 NSCLC
SR leukemia = tested on: SR leukemia

Compound | TGI (CCRF-CEM leukemia) | TGI (BT-549 breast) | TGI (EKVX NSCLC) | TGI (HOP-62 NSCLC) | TGI (SK-MEL-5 melanoma) | TGI (UACC-62 melanoma) | TGI (MDA-MB-231 breast) | TGI (SF-295 CNS) | TGI (IGROV1 ovarian) | TGI (COLO 205 colon) | TGI (A549 NSCLC) | TGI (SR leukemia) | GI50 (A549 NSCLC) | GI50 (EKVX NSCLC) | GI50 (HOP-62 NSCLC) | GI50 (SK-MEL-5 melanoma) | GI50 (IGROV1 ovarian) | GI50 (COLO 205 colon)
Cc1cc2/c(=C\c3ccc(N(C)C)cc3)c3ccccc3n2[n+]1C | > 100 µM | 5.99 µM | 8.79 µM | 8.45 µM | 1.58 µM | 2.95 µM | 3.66 µM | 12.8 µM | 6.76 µM | 0.354 µM | – | – | – | – | – | – | – | –
O=C(NCCN1CCOCC1)c1cn2c(ccc3sc4ccccc4c(=O)c32)n1 | – | > 100 µM | > 100 µM | > 100 µM | 60.6 µM | – | > 100 µM | 44.9 µM | > 100 µM | > 100 µM | > 100 µM | > 100 µM | – | – | – | – | – | –
C/C(=N\N=C(\N)SB(F)F)c1ccc2ccccc2c1 | 56.7 µM | > 100 µM | > 100 µM | – | > 100 µM | > 100 µM | > 100 µM | > 100 µM | > 100 µM | > 100 µM | > 100 µM | > 100 µM | – | – | – | – | – | –
Nc1[nH]nc(Nc2ccc(Cl)cc2)c1P(=O)(c1ccccc1)c1ccccc1 | 86.1 µM | – | > 100 µM | 49.1 µM | 67.7 µM | 56.4 µM | 49.8 µM | 44.5 µM | 55.2 µM | > 100 µM | > 100 µM | > 100 µM | – | – | – | – | – | –
c1ccc2c(c1)c1c(n2CCOCCN2CCCC2)CCCC1 | 51 µM | – | 75.2 µM | 28.9 µM | 30.3 µM | 33.7 µM | 31 µM | > 100 µM | 56.4 µM | 38.2 µM | > 100 µM | 35.2 µM | – | – | – | – | – | –
CC1(C)OC2[C@@H](CO[C@@]3([C@@H](O)CCO)OC(C)(C)O[C@@H]23)O1 (some centres not stated) | > 100 µM | > 100 µM | > 100 µM | > 100 µM | > 100 µM | > 100 µM | > 100 µM | > 100 µM | > 100 µM | > 100 µM | – | > 100 µM | – | – | – | – | – | –
CCOC(=O)c1nnsc1N/N=C\c1ccc([N+](=O)[O-])cc1 | > 100 µM | > 100 µM | > 100 µM | > 100 µM | > 100 µM | > 100 µM | > 100 µM | > 100 µM | > 100 µM | > 100 µM | > 100 µM | – | – | – | – | – | – | –
CCOC(=O)c1[nH]c(Br)c(-c2ccc(OC)c(OC)c2)c1Br | – | 3.16 µM | 43.3 µM | 14.8 µM | 4.3 µM and 6.5 µM | 22 µM | – | 0.0356 µM | 11.9 µM | 1.07 µM | 23 µM | 13.4 µM | 0.0564 µM | 10.4 µM | 0.0253 µM | 0.0339 µM | 0.0494 µM | 0.02 µM
Cc1c2c3ccccc3nc-2n(C)c2ccccc12 | 5.33 µM | 19.3 µM | 10.3 µM | 31.9 µM | 2.2 µM | 3.67 µM | – | 24.6 µM | 12.2 µM | – | 9.19 µM | 25.2 µM | – | – | – | – | – | –
O=S(=O)(O)c1cc(N=Nc2c(O)ccc3ccccc23)ccc1/C=C/c1ccc(N=Nc2c(O)ccc3ccccc23)cc1S(=O)(=O)O | – | > 100 µM | > 100 µM | > 100 µM | > 100 µM | > 100 µM | > 100 µM | > 100 µM | > 100 µM | > 100 µM | > 100 µM | – | – | – | – | – | – | –
COc1cc(C(C)O)c(S(=O)(=O)CC(C)O)nn1 (configuration not stated) | > 100 µM | > 100 µM | > 100 µM | – | > 100 µM | > 100 µM | – | > 100 µM | > 100 µM | > 100 µM | > 100 µM | > 100 µM | – | – | – | – | – | –
O=C(/C=C/c1ccc(-c2ccccc2)cc1)NCc1ccc(C(=O)NCc2ccccc2)cc1 | > 100 µM | > 100 µM | > 100 µM | > 100 µM | > 100 µM | > 100 µM | > 100 µM | > 100 µM | > 100 µM | > 100 µM | > 100 µM | – | – | – | – | – | – | –
CC(=N\N)/C(C)=N/N=C(C)/C(C)=N/N | > 100 µM | > 100 µM | > 100 µM | > 100 µM | > 100 µM | – | > 100 µM | > 100 µM | > 100 µM | > 100 µM | > 100 µM | > 100 µM | – | – | – | – | – | –
O=C(O)Cc1ccc(Nc2nc3cc(C(F)(F)F)ccc3nc2C(=O)O)cc1 | – | > 100 µM | > 100 µM | > 100 µM | > 100 µM | > 100 µM | – | > 100 µM | > 100 µM | > 100 µM | > 100 µM | > 100 µM | – | – | – | – | – | –
CS(=O)(=O)c1nc(-c2cc3c(c(S(C)(=O)=O)n2)CCCC3)cc2c1CCCCC2 | > 100 µM | > 100 µM | > 100 µM | > 100 µM | > 100 µM | > 100 µM | > 100 µM | > 100 µM | 54.3 µM | > 100 µM | > 100 µM | – | – | – | – | – | – | –
Cc1ccc(SC2C(=O)C3CC(OCc4ccccc4)C2(C)C3(C)C)cc1 (configuration not stated) | > 100 µM | > 100 µM | > 100 µM | > 100 µM | > 100 µM | > 100 µM | > 100 µM | > 100 µM | > 100 µM | – | > 100 µM | > 100 µM | – | – | – | – | – | –
O=C1/C(=C\c2cccc(Oc3ccccc3)c2)SC(c2ccccc2)N1c1ccccc1 (configuration not stated) | 86.4 µM | > 100 µM | > 100 µM | > 100 µM | > 100 µM | > 100 µM | > 100 µM | > 100 µM | – | > 100 µM | > 100 µM | 37.2 µM | – | – | – | – | – | –
CN(Cc1cnc2nc(N)nc(N)c2n1)c1ccc(C(=O)N[C@@H](CCC(=O)O)C(=O)O)cc1 | – | > 250 µM | > 250 µM | – | 179 µM and > 250 µM | 41.4 µM and > 250 µM | > 250 µM | 231 µM and > 250 µM | 212 µM and > 250 µM | 249 µM and > 250 µM | > 250 µM | 194 µM | – | – | – | – | – | –
CCOC(=O)c1c(N=P(c2ccccc2)(c2ccccc2)c2ccccc2)nnc(-c2ccccc2)c1-c1ccccc1 | > 100 µM | – | > 100 µM | > 100 µM | > 100 µM | > 100 µM | > 100 µM | > 100 µM | > 100 µM | > 100 µM | > 100 µM | > 100 µM | – | – | – | – | – | –
